Measurements from PubChem BioAssay AID1259407 (Chemical Carcinogenesis Research Information System (CCRIS), 2018).
The source made the active and inactive calls. No rule for the calls is given here.

System: CCRIS mutagenicity, Ames/micronucleus/aberration tests
Experiment: CCRIS mutagenicity studies
[1] = Test System: AMES SALMONELLA TYPHIMURIUM, Strain/Indicator: TA98, Metabolic Activation: NONE, Method: STANDARD PLATE
[2] = Test System: AMES SALMONELLA TYPHIMURIUM, Strain/Indicator: TA98, Metabolic Activation: RAT, LIVER, S-9, AROCLOR 1254, Method: STANDARD PLATE
[3] = Test System: AMES SALMONELLA TYPHIMURIUM, Strain/Indicator: TA100, Metabolic Activation: NONE, Method: STANDARD PLATE
[4] = Test System: AMES SALMONELLA TYPHIMURIUM, Strain/Indicator: TA100, Metabolic Activation: RAT, LIVER, S-9, AROCLOR 1254, Method: STANDARD PLATE
[5] = Test System: AMES SALMONELLA TYPHIMURIUM, Strain/Indicator: TA1535, Metabolic Activation: NONE, Method: STANDARD PLATE
[6] = Test System: AMES SALMONELLA TYPHIMURIUM, Strain/Indicator: TA1537, Metabolic Activation: NONE, Method: STANDARD PLATE

Row | SMILES | mutagenic call [1] | mutagenic call [2] | mutagenic call [3] | mutagenic call [4] | mutagenic call [5] | mutagenic call [6] | other results
1 | CCC(CCC(C)=O)COC(=O)CCCCC(=O)O (configuration not stated) | inactive; negative | inactive; negative | inactive; negative | inactive; negative |  |  | mutagenic call (Test System: AMES SALMONELLA TYPHIMURIUM, Strain/Indicator: TA97, Metabolic Activation: NONE, Method: STANDARD PLATE): inactive; negative; mutagenic call (Test System: AMES SALMONELLA TYPHIMURIUM, Strain/Indicator: TA97, Metabolic Activation: RAT, LIVER, S-9, AROCLOR 1254, Method: STANDARD PLATE): inactive; negative; mutagenic call (Test System: AMES SALMONELLA TYPHIMURIUM, Strain/Indicator: TA97, Metabolic Activation: RAT, LIVER, S-9, DI(2-ETHYLHEXYL)PHTHALATE, Method: STANDARD PLATE): inactive; negative; mutagenic call (Test System: AMES SALMONELLA TYPHIMURIUM, Strain/Indicator: TA98, Metabolic Activation: RAT, LIVER, S-9, DI(2-ETHYLHEXYL)PHTHALATE, Method: STANDARD PLATE): inactive; negative; mutagenic call (Test System: AMES SALMONELLA TYPHIMURIUM, Strain/Indicator: TA100, Metabolic Activation: RAT, LIVER, S-9, DI(2-ETHYLHEXYL)PHTHALATE, Method: STANDARD PLATE): inactive; negative; mutagenic call (Test System: AMES SALMONELLA TYPHIMURIUM, Strain/Indicator: TA102, Metabolic Activation: NONE, Method: STANDARD PLATE): inactive; negative; mutagenic call (Test System: AMES SALMONELLA TYPHIMURIUM, Strain/Indicator: TA102, Metabolic Activation: RAT, LIVER, S-9, AROCLOR 1254, Method: STANDARD PLATE): inactive; negative; mutagenic call (Test System: AMES SALMONELLA TYPHIMURIUM, Strain/Indicator: TA102, Metabolic Activation: RAT, LIVER, S-9, DI(2-ETHYLHEXYL)PHTHALATE, Method: STANDARD PLATE): inactive; negative
2 | CN(C)c1nc(=O)n(C2CCCCC2)c(=O)n1C |  |  |  |  |  |  | mutagenic call (End Point: In vitro chromosomal aberrations, Test System: Chinese hamster ovary (CHO) cells, Metabolic Activation: None): active; positive; mutagenic call (End Point: In vitro chromosomal aberrations, Test System: Chinese hamster ovary (CHO) cells, Metabolic Activation: S-9): inactive; negative
3 | O=[N+]([O-])c1ccc2nscc2c1 | active; positive |  | active; positive |  | active; positive | active; positive | mutagenic call (Test System: AMES SALMONELLA TYPHIMURIUM, Strain/Indicator: TA98, Metabolic Activation: S-9, Method: STANDARD PLATE): active; positive; mutagenic call (Test System: AMES SALMONELLA TYPHIMURIUM, Strain/Indicator: TA100, Metabolic Activation: S-9, Method: STANDARD PLATE): active; positive; mutagenic call (Test System: AMES SALMONELLA TYPHIMURIUM, Strain/Indicator: TA1535, Metabolic Activation: S-9, Method: STANDARD PLATE): active; positive; mutagenic call (Test System: AMES SALMONELLA TYPHIMURIUM, Strain/Indicator: TA1537, Metabolic Activation: S-9, Method: STANDARD PLATE): active; positive
4 | O=C(O)/C=C(/CC(=O)O)C(=O)O | inactive; negative | inactive; negative | inactive; negative | inactive; negative | inactive; negative | inactive; negative | mutagenic call (Test System: AMES SALMONELLA TYPHIMURIUM, Strain/Indicator: TA1535, Metabolic Activation: RAT, LIVER, S-9, AROCLOR 1254, Method: STANDARD PLATE): inactive; negative; mutagenic call (Test System: AMES SALMONELLA TYPHIMURIUM, Strain/Indicator: TA1537, Metabolic Activation: RAT, LIVER, S-9, AROCLOR 1254, Method: STANDARD PLATE): inactive; negative
5 | O=c1[nH]cc2ccc3cccc4ccc1c2c34 | inactive; negative | inactive; negative | inactive; negative | inactive; negative |  |  | 
6 | Nc1ccc(-c2ccc(N)c(O)c2)cc1O | inactive; negative |  | active; positive (weak) |  | inactive; negative | inactive; negative | mutagenic call (Test System: AMES SALMONELLA TYPHIMURIUM, Strain/Indicator: TA98, Metabolic Activation: RAT, LIVER, S-9, AROCLOR, Method: STANDARD PLATE): inactive; negative; mutagenic call (Test System: AMES SALMONELLA TYPHIMURIUM, Strain/Indicator: TA100, Metabolic Activation: RAT, LIVER, S-9, AROCLOR, Method: STANDARD PLATE): active; positive (weak); mutagenic call (Test System: AMES SALMONELLA TYPHIMURIUM, Strain/Indicator: TA1535, Metabolic Activation: RAT, LIVER, S-9, AROCLOR, Method: STANDARD PLATE): inactive; negative; mutagenic call (Test System: AMES SALMONELLA TYPHIMURIUM, Strain/Indicator: TA1537, Metabolic Activation: RAT, LIVER, S-9, AROCLOR, Method: STANDARD PLATE): inactive; negative
